The target in this experiment is T1, ΔF508 CFTR (Homo sapiens, UniProt P13569, DEL508-508).
T1 construct: expressed in transfected cells
Briefly: MQAE chloride transport assay in C127 cells expressing ΔF508 CFTR. The class given is cell-based, murine. The following applies: for Emax: C127, plateau level in activity at high compound concentration, read-out: % of Maximal Response; for Emax / % of Maximal Response: as a percentage of the low temperature response; for pEC50: chloride transport activity, MQAE; for % Maximal Response @ 1.25 μM: limiting concentration 1.25 μM; for % of Maximal Response: plateau level in activity at high compound concentration. Here is the method:
C127 cells are a murine mammary epithelial cell line obtained from ATCC (#CRL 1616, American Type Culture Collection, Manassas, Va.). C127 cells were transfected with a bovine papilloma virus-based eukaryotic expression vector containing genes for ΔF508 CFTR and neomycin resistance whose expression was driven by a metallothionein promoter. Clonal cell populations resistant to G418 and positive for staining with anti-CFTR antibody were identified.
C127 cells expressing ΔF508 CFTR were grown in microtiter plates in DMEM (Dulbecco's Modified Eagle Medium, Hyclone, Logan, Utah) supplemented with fetal bovine serum, antibiotics, and glutamine in a 37° C., 5% CO2 atmosphere. Once confluent, the cells were loaded overnight with the disclosed compounds and a fluorescent dye sensitive to chloride ion concentration, N-(ethoxycarbonylmethyl)-6-methoxy quinolinium bromide (MQAE) (Verkman, Am. J. Physiol. 259 C375-C388 (1990)).
The following day, cells were washed with chloride-containing buffer to remove extracellular MQAE and to quench intracellular MQAE fluorescence. Chloride buffer was flicked out and replaced with nitrate buffer with added forskolin and IBMX (isobutylmethylxanthine) to stimulate CFTR activity. […] Buffers were adjusted to pH 7.4 and contained: 10 mM HEPES (N-2-Hydroxyethylpiperazine-N′-2-ethanesulfonic acid), 2.4 mM K2HPO4, 0.6 mM KH2PO4, 1.0 mM CaSO4, 1.0 mM MgSO4, 150 mM NaCl or NaNO3, and 25 mM glucose.
The increase in MQAE fluorescence as a function of time was followed using 360 nm excitation and 460 nm emission wavelengths. Fluorescence increased as chloride flowed out of cells through CFTR and the rate of increase in fluorescence over the first five minutes was taken as a measure of chloride transport activity.
Cells were treated with mixtures of up to 100 compounds per well for ca. 18 hours before the assay for chloride transport activity. […] Dose-response curves were generated and compounds were ranked based on their EC50 values and maximal responses (the plateau level in activity at high compound concentration, as a percentage of the low temperature response).

[1] abbreviates: percentage of low temperature response, C127 ΔF508 CFTR cells.

pEC50: −log10 of the molar value.

T1 sequence (P13569 with tags, fused parts or gaps DEL508-508): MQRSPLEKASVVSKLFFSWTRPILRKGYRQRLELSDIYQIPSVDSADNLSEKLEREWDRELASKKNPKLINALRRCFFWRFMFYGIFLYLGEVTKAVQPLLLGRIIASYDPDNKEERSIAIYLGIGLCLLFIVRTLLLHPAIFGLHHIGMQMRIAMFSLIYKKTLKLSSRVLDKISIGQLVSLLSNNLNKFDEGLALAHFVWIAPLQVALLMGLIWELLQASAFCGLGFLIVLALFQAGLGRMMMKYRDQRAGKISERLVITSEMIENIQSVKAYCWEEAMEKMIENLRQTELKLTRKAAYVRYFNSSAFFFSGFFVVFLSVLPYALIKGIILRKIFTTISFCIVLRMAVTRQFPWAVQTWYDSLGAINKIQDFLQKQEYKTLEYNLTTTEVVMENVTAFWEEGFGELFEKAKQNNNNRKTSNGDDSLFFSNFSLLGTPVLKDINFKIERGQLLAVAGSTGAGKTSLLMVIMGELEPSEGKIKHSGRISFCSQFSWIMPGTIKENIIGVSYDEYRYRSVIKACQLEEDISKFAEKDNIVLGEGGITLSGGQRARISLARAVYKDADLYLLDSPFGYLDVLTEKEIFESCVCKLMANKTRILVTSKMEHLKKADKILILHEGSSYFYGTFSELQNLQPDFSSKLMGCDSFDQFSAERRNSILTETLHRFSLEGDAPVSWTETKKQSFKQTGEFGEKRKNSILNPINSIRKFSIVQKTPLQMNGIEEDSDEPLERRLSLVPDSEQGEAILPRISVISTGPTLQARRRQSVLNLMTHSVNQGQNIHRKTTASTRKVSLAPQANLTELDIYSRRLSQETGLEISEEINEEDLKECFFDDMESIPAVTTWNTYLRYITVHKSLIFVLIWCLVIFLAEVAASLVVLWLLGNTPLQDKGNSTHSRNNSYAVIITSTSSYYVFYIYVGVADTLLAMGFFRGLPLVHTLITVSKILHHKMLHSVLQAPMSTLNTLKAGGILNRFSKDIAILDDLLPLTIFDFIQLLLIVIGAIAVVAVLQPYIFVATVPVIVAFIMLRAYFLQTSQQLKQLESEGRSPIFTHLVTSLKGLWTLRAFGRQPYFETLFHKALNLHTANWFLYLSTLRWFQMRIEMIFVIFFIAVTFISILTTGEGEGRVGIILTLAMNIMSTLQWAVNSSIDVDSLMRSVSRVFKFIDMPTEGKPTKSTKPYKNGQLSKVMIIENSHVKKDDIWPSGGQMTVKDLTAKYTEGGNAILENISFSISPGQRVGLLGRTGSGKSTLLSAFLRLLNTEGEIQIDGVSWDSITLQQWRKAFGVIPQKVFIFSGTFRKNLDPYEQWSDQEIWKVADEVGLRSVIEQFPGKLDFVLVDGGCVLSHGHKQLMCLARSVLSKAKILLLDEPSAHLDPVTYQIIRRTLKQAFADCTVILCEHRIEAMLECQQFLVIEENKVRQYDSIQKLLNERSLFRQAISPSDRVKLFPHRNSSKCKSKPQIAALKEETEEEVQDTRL

Regarding `O=C(Nc1cccnc1)C1Cc2ccccc2CN1C(=O)c1cccc(Oc2ccccc2)c1` (racemic) [Compound 98], the Emax worked out at 55%.
Take `O=C(Nc1nccs1)C1Cc2ccccc2CN1C(=O)c1cccc(Oc2ccccc2)c1` (racemic) [Compound 100]: the Emax is 59%. Moreover, where the note is “C127 ΔF508 CFTR cells”, the pEC50 – broadly, −log10 of the EC50, conventionally taken in molar units – was 6.37.
The like results for `CCCCCc1ccc(NC(=O)[C@@H]2Cc3ccccc3CN2C(=O)c2ccc(C)c(OC(C)C)c2)cc1` [Compound 143] were, in that order, 85% and 8.23.
The like results for `CCCCCCN(C(C)=O)c1ccc(NC(=O)[C@@H]2Cc3ccccc3CN2C(=O)c2cccc(Oc3ccccc3)c2)cc1` [Compound 91] were, in that order, 70% and 7.54.
As for `CCCCCc1ccc(NC(=O)[C@@H]2Cc3ccccc3CN2C(=O)c2cccc(OC(C)C(C)C)c2)cc1` (stereo partly drawn) [Compound 142], the Emax was 88%. For the same compound, where the note is “C127 ΔF508 CFTR cells”, the pEC50 was 8.10.
In the case of `CCCCCc1ccc(NC(=O)[C@@H]2Cc3ccccc3CN2C(=O)c2ccc(OC)c(OCCN3CCOCC3)c2)cc1` [Compound 128, (S)-2-[4-Methoxy-3-(2-morpholin-4-yl-ethoxy)benzoyl]-1,2,3,4-tetrahydroisoquinoline-3-carboxylic acid (4-pentylphenyl)amide], the Emax worked out at 63%. Further, for the setting “C127 ΔF508 CFTR cells”, the negative logarithm of the EC50 (pEC50) was 6.96.
In the case of `CCCCCc1ccc(NC(=O)[C@@H]2Cc3ccccc3CN2C(=O)c2cccc(OCc3ccccc3)c2)cc1` [Compound 114], the Emax was 72%. Besides, the negative logarithm of the EC50 (pEC50) (C127 ΔF508 CFTR cells) was 7.23.
As to `CCCCCc1ccc(NC(=O)[C@@H]2Cc3ccccc3CN2C(=O)c2ccc(OC)c(Oc3ccccc3)c2)cc1` [Compound 115], the Emax came to 74%.
Take `O=C(Nc1ccc(Cl)cc1)C1Cc2ccccc2CN1C(=O)c1cccc(Oc2ccccc2)c1` (racemic) [Compound 1]: the Emax is 79%.
Take `CCCCCc1ccc(NC(=O)[C@@H]2Cc3ccccc3CN2C(=O)c2cc(OCCN3CCOCC3)cc(OC(C)C)c2)cc1` [Compound 137]: the Emax amounted to 69%. The compound further showed a negative-log EC50 (pEC50) (C127 ΔF508 CFTR cells) of 6.74.
For the compound `O=C(Nc1ccc(I)cc1)C1Cc2ccccc2CN1C(=O)c1cccc(Oc2ccccc2)c1` (racemic) [Compound 93], the Emax came to 60%.
For the compound `CCCCCc1ccc(NC(=O)[C@@H]2Cc3ccccc3CN2C(=O)c2cc(Cl)cc(Cl)c2)cc1` [Compound 133], the Emax came out at 70%. This compound also had a negative logarithm of the EC50 (pEC50) (C127 ΔF508 CFTR cells) of 7.85.
With `CCCCN(C(C)=O)c1ccc(NC(=O)C2Cc3ccccc3CN2C(=O)c2cccc(Oc3ccccc3)c2)cc1` (racemic) [Compound 102], the Emax is 70%.
Turning to `CCOc1cccc(NC(=O)C2Cc3ccccc3CN2C(=O)c2cccc(Oc3ccccc3)c2)c1` (racemic) [Compound 83], the Emax is 79%. Further, the negative logarithm of the EC50 (pEC50) (C127 ΔF508 CFTR cells) is 6.55.
For the compound `O=C(NCCc1ccc(Br)cc1)C1Cc2ccccc2CN1C(=O)c1cccc(Oc2ccccc2)c1` (racemic) [Compound 73, (±)-2-(3-Phenoxybenzoyl)-1,2,3,4-tetrahydroisoquinoline-3-carboxylic acid[2-(4-bromophenyl)-ethyl]amide], the “% Maximal Response @ 1.25 μM” value under setting [1] is recorded as 34%.
With `O=C(Nc1ccc(Cl)cc1)C1Cc2ccccc2CN1C(=O)c1cccc(OCc2ccccc2)c1` (single isomer, unassigned; (+)) [Compound 14, (+)-2-(3-Benzyloxybenzoyl)-1,2,3,4-tetrahydroisoquinoline-3-carboxylic acid(4-chlorophenyl)amide], the Emax came to 85%. In addition, the negative-log EC50 (pEC50) (C127 ΔF508 CFTR cells) is 6.66.
`CCCCCc1ccc(NC(=O)[C@@H]2Cc3ccccc3CN2C(=O)c2cc(OC(C)C)c(OC)cn2)cc1` [Compound 145, (S)-2-(4-Isopropoxy-5-methoxypyridine-2-carbonyl)-1,2,3,4-tetrahydroisoquinoline-3-carboxylic acid(4-pentylphenyl)amide]: the “% of Maximal Response” value was determined as 75%. This compound showed a pEC50 (C127 ΔF508 CFTR cells) of 7.60.
For `CCCCCc1ccc(NC(=O)[C@@H]2Cc3ccccc3CN2C(=O)c2cc(OC)c(OC)c(OC)c2)cc1` [Compound 138], the Emax stood at 67%. Further, the pEC50 (C127 ΔF508 CFTR cells) is 7.03.
Regarding `CCCCCc1ccc(NC(=O)[C@@H]2Cc3ccccc3CN2C(=O)c2cccc(Oc3ccc(OCC)c(Oc4ccccc4)c3)c2)cc1` [Compound 121, (S)-2-[3-(4-Ethoxy-3-phenoxyphenoxy)benzoyl]-1,2,3,4-tetrahydroisoquinoline-3-carboxylic acid (4-pentylphenyl)amide], the “% of Maximal Response” value is listed as 80%. In addition, the negative logarithm of the EC50 (pEC50) (C127 ΔF508 CFTR cells) is 8.20.
`COc1ccc(C(=O)N2Cc3ccccc3CC2C(=O)Nc2ccc(Cl)nc2)cc1Oc1ccccc1` (racemic) [Compound 108]: the Emax amounted to 60%. This compound had a negative logarithm of the EC50 (pEC50) (C127 ΔF508 CFTR cells) of 7.00.
The like results for `CCCCCc1ccc(NC(=O)C2Cc3ccccc3CN2C(=O)c2cccc(OC(C)CC)c2)cc1` (stereo not drawn) [Compound 140] were, in that order, 84% and 8.36.
With `CCCCCCN(C(C)=O)c1ccc(NC(=O)C2Cc3ccccc3CN2C(=O)c2cccc(Oc3ccccc3)c2)cc1` (racemic) [Compound 90, (±)-2-(3-Phenoxybenzoyl)-1,2,3,4-tetrahydroisoquinoline-3-carboxylic acid[4-(acetylhexylamino)phenyl]amide], the Emax amounted to 66%. The pEC50 (C127 ΔF508 CFTR cells) was 7.23.
Take `CCCCCc1ccc(NC(=O)[C@@H]2Cc3ccccc3CN2C(=O)c2cccc(Oc3ccccc3)c2)cn1` [Compound 107, (S)-2-(3-Phenoxybenzoyl)-1,2,3,4-tetrahydroisoquinoline-3-carboxylic acid(6-pentylpyridin-3-yl)amide]: the Emax worked out at 54%.
`O=C(Nc1ccc(Cl)cc1)C1Cc2ccccc2CN1C(=O)c1ccc2ccccc2c1` (racemic) [Compound 22, (±)-2-(Naphthalene-2-carbonyl)-1,2,3,4-tetrahydroisoquinoline-3-carboxylic acid(4-chlorophenyl)amide]: the “% Maximal Response @ 1.25 μM” value under setting [1] worked out at 36%.
Regarding `CC1c2ccccc2CN(C(=O)c2cccc(Oc3ccccc3)c2)C1C(=O)Nc1ccc(Cl)cc1` (single isomer, unassigned) [Compound 18], the Emax amounted to 59%. In addition, where the note is “C127 ΔF508 CFTR cells”, the pEC50 was 7.06.
As to `CCCCCc1ccc(NC(=O)C2Cc3ccccc3CN2C(=O)c2cccc(OCc3ccccc3)c2)cc1` (racemic) [Compound 113], the Emax amounted to 91%. Under “C127 ΔF508 CFTR cells”, the negative logarithm of the EC50 (pEC50) is 7.16.
In the case of `CCCCCc1ccc(NC(=O)[C@@H]2Cc3ccccc3CN2C(=O)c2cccc(Oc3ccccc3)c2)cc1` [Compound 88], the Emax came out at 76%.
On to `CCCCCc1ccc(NC(=O)[C@@H]2Cc3ccccc3CN2C(=O)c2ccc(OC)c(OC)c2)cc1` [Compound 127], for which the Emax is 83%. In addition, the pEC50 (C127 ΔF508 CFTR cells) is 6.74.
With `Cc1ccc(NC(=O)C2Cc3ccccc3CN2C(=O)c2cccc(Oc3ccccc3)c2)cc1` (racemic) [Compound 67], the Emax is 70%. The Percent of low-temperature response at 1.25 µM (C127, limiting concentration 1.25 μM, percentage of low temperature response, C127 ΔF508 CFTR cells, read-out: % Maximal Response @ 1.25 μM) turned out to be 85%. Under “C127 ΔF508 CFTR cells”, this compound gave a pEC50 of 6.57.
In the case of `CC(C)(C)c1ccc(Oc2cccc(C(=O)N3Cc4ccccc4CC3C(=O)Nc3ccc(Cl)cc3)c2)cc1` (racemic) [Compound 8], the Emax came out at 95%. For the same compound, the pEC50 (C127 ΔF508 CFTR cells) was 6.55.
Take `CC(=O)N(C)c1ccc(NC(=O)[C@@H]2Cc3ccccc3CN2C(=O)c2cccc(Oc3ccccc3)c2)cc1` [Compound 86]: the Emax turned out to be 54%. Further, the pEC50 (C127 ΔF508 CFTR cells) was 7.18.

(Values after patent US7541466B2, “Tetrahydroisoquinoline derivatives for treating protein trafficking diseases” (Genzyme Corporation, priority 2003, dated 2009).)
